# US20060069013A1, “Pharmaceutical preparations comprising acid-stabilised insulin” (Novo Nordisk A/S, priority 2003, published 2006)
# Settings: not given
row,Compound,melting point
1,"COc1cc(C=C2SC(=O)NC2=O)cc(I)c1O [Example 167, 5-(4-Hydroxy-3-iodo-5-methoxybenzylidene)thiazolidine-2,4-dione]",256 °C
2,"O=C1NC(=O)/C(=C/c2ccc3cc(O)ccc3c2)S1 [Example 171, 5-(6-Hydroxy-2-naphthylmethylene) thiazolidine-2,4-dione]",310 to 314 °C
3,"O=C1NC(=O)/C(=C/c2c[nH]c3ccc([N+](=O)[O-])cc23)S1 [Example 199, 5-(5-Nitro-1H-indol-3-ylmethylene)thiazolidine-2,4-dione]",330 to 333 °C
4,"O=C1NC(=O)/C(=C/c2c(Cl)cccc2Cl)S1 [Example 229, 5-(2,6-Dichlorobenzylidene)thiazolidine-2,4-dione]",152 to 154 °C
5,"COc1cc(O)cc(OC)c1/C=C1\SC(=O)NC1=O [Example 234, 5-(4-Hydroxy-2,6-dimethoxybenzylidene)thiazolidine-2,4-dione]",331 to 333 °C
6,"COc1cc(OCc2c(F)cccc2[N+](=O)[O-])cc(OC)c1/C=C1\SC(=O)NC1=O [Example 237, 5-[4-(2-Fluoro-6-nitrobenzyloxy)-2,6-dimethoxybenzylidene]thiazolidine-2,4-dione]",255 to 256 °C
7,"O=C1NC(=O)/C(=C/c2cc3ccccc3o2)S1 [Example 238, 5-Benzofuran-2-ylmethylenethiazolidine-2,4-dione]",265 to 266 °C
8,"CN(C)c1ccc(/C=C/C=C2\SC(=O)NC2=O)cc1 [Example 239, 5-[3-(4-Dimethylaminophenyl)allylidene]thiazolidine-2,4-dione]",259 to 263 °C
9,"CC(/C=C1\SC(=O)NC1=O)=C\c1ccccc1 [Example 240, 5-(2-Methyl-3-phenylallylidene)thiazolidine-2,4-dione]",203 to 210 °C
10,"O=C1NC(=O)/C(=C/C(Cl)=C/c2ccccc2)S1 [Example 241, 5-(2-Chloro-3-phenylallylidene)thiazolidine-2,4-dione]",251 to 254 °C
11,"O=C1NC(=O)/C(=C/c2cc3ccccc3[nH]c2=O)S1 [Example 242, 5-(2-Oxo-1,2-dihydroquinolin-3-ylmethylene)thiazolidine-2,4-dione]",338 to 347 °C
12,"c1cc(COc2ccc3ccccc3c2)cc(-c2nnn[nH]2)c1 [Example 572, 5-(3-(Naphthalen-2-yloxymethyl)-phenyl)-1H-tetrazole]",200 to 202 °C

# Settings: after subcutaneous injection of a soluble preparation; background statement; cited from earlier work
row,Compound,absorption rates
1,"Co^3+-hexamer: ""absorption rates vary between about 1 hour (for rapid-acting insulin analogues ...) and about 4 hours (Co^3+-hexamer)""",about 4 hour

# Same assay, conditions: in vivo, sc; cited from earlier work
Compound,absorption rates,absorption half-life
Asp^B28 human insulin,about 1 hour,–
"soluble human insulin hexamer: ""inherent limitation of the absorption half-life to about 4 hours for a soluble human insulin hexamer""",–,about 4 hours
